pIC50: −log10 of the molar value. Values joined by “and” are separate entries in the source; they are usually repeats but may differ in a detail not shown here. Identical values can stand only once.
Experiments:
SSTR4 = target: T1, SSTR4 (Homo sapiens, UniProt P31391); test: Binding SSTR4; conditions: > = extrapolated value; read-out: Bind SSTR4
T1 construct: host or cells: SRIF receptor expressing cell cultures (general statement only)

[1] = target: T2, human sst2 receptor sub-type (Homo sapiens, UniProt P30874); test: In vitro binding, human sst2 receptor sub-type (SSTR2); conditions: Tables 8/9: Bind SSTR2 nM
T2 construct: host or cells: SRIF receptor expressing cell cultures (general statement only)
T2 sequence (P30874 whole entry): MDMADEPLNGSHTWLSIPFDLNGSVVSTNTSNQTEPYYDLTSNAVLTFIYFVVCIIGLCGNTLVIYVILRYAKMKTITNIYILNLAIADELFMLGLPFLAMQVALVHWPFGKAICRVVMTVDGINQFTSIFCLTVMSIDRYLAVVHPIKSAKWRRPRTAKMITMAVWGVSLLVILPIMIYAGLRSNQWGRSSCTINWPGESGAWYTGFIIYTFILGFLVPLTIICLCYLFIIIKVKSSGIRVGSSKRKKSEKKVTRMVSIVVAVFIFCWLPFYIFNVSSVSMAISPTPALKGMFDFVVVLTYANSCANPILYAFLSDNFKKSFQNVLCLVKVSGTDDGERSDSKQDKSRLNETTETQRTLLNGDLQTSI
Protocol: The in vitro binding affinities for rat cortex SRIF receptors and the human sst2 receptor sub-type was assessed. Further the in vitro inhibition of the GHRH induced GH secretion in primary cultures of rat pituitary cells as well as the in vivo inhibition of GH secretion in the rat after systemic or enteral application was studied. […] Therefore, the in vivo activities of the compounds in rats with respect to inhibition of growth hormone release was also assessed. Most compounds selected were tested by enteral—intraduodenal (i.d.) application. For determination of the absolute activity and for the calculation of an enteral bioavailability, single subcutaneous (s.c.) application of intravenous (i.v.) infusion was used.

[2] = test system: GHRH induced GH secretion in primary cultures of rat pituitary cells; test: In vitro inhibition of GHRH induced GH secretion (GH vitro +GHRH); type: cell-based
SSTR5 = target: T3, SSTR5 (Homo sapiens, UniProt P35346); test: Binding SSTR5; conditions: read-out: Bind SSTR5
T3 construct: host or cells: SRIF receptor expressing cell cultures (general statement only)
T3 sequence (P35346 whole entry, species assumed): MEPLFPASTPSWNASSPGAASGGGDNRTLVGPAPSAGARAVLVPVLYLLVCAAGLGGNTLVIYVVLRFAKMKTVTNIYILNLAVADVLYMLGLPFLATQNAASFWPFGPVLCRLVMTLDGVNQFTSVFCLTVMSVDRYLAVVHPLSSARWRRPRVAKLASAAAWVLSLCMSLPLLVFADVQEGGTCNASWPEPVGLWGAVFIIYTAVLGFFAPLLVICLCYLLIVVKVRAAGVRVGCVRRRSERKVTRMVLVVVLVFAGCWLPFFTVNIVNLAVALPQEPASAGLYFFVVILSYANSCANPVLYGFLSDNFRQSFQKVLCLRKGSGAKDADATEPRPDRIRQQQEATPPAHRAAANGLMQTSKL

GH secretion [3] = test: GH secretion in vivo, rat, intraduodenal (enteral) application, 1 h (basal); conditions: for GH vivo i.d. 1 h ID50: basal GH secretion, 1 h after intraduodenal application, mostly approximate ID50 from single 10 mg/kg dose, Ø = no effect at this dose, > = extrapolated value; for enteral ID50 (GH secretion): enteral (intraduodenal) application
Protocol: (§1) Animals, anesthesia: Male rats of a Sprague Dawley strain (Ico:OFA-SD, Iffa-Credo, F-Lyon) of 200-300 g body weight were used. They were kept under standardized conditions and were anesthetized with pentobarbital-sodium (Siegfried, CH Zofingen), 60 mg/kg i.p. for subcutaneous and intraduodenal applications. Animals designed for an infusion experiment were anesthetized with urethane (Siegfried, CH Zofingen), 1.2 g/kg i.p.
(§2) Compounds: The compounds were dissolved, optionally with the aid of one or more of the following adjuncts:
(§3) Stock solutions of the compounds were prepared in water with the addition of the necessary adjunct(s). Further dilutions were prepared allowing 5 mL/kg for subcutaneous application, 2 mL for intraduodenal (i.d.) application or 4.5 mL/kg for intravenous infusion. The solutions for the intravenous application/infusion were made isotonic by addition of glucose to a final concentration of 5%.
(§4) Applications were made, or, in the case of infusion, started, approximately 10 minutes after induction of anesthesia. No further treatment followed subcutaneous or intraduodenal application. Ten, twenty-five and fifty-five minutes after start of the intravenous infusion the GH secretion was stimulated with repeated intravenous injections of the potent GHRH analog, D-Ala2 GHRH1-29NH2, 1 μg/kg.
(§5) One hour after subcutaneous or intraduodenal application of the compounds, blood was collected from the trunk after decapitation. In the case of application by infusion, 5 minutes after each application of GHRH, a blood sample of 0.8 mL was taken from a V. jugularis and mixed with EDTA (Eppendorf tubes TOM14, Milian, CH Geneva). The blood samples were kept on ice and spun in a cooled centrifuge. The serum or plasma was separated and frozen.
(§6) Statistics: In each experiment, 4-5 animals were used per dose, with 6 to 8 animals as the control group that received the vehicle. The GH serum/plasma levels were averaged, the mean of the treated groups expressed in percent of the control group and the ID50-value for the inhibition of the secretion was determined graphically (log-probit) for each experiment. In most experiments with enteral (intraduodenal) application only 1 dose, 10 mg/kg, was given. […] Only inhibitions between 20 and 80% were considered reliable.
(§7) Two to four experiments were performed. In the case of proper dose response curves, allowing the determination of an ID50 values were averaged logarithmically. In the cases of single dose-experiments, the GH value in percent of control were averaged logarithmically and the ID50 for this value was taken from the table. ID50 values determined at the different time points during the infusion were averaged and this value was included in the tables.

GH secretion [4] = test: GH secretion in vivo, rat, subcutaneous application, 1 h (basal); conditions: for GH vivo s.c. 1 h ID50: rat, basal GH secretion, 1 h after subcutaneous application
Protocol: as §1, §2, §3, §4, §5, §6, §7

SSTR3 = target: T4, SSTR3 (Homo sapiens, UniProt P32745); test: Binding SSTR3; conditions: > = extrapolated value; read-out: Bind SSTR3
T4 construct: host or cells: SRIF receptor expressing cell cultures (general statement only)
T4 sequence (P32745 whole entry, species assumed): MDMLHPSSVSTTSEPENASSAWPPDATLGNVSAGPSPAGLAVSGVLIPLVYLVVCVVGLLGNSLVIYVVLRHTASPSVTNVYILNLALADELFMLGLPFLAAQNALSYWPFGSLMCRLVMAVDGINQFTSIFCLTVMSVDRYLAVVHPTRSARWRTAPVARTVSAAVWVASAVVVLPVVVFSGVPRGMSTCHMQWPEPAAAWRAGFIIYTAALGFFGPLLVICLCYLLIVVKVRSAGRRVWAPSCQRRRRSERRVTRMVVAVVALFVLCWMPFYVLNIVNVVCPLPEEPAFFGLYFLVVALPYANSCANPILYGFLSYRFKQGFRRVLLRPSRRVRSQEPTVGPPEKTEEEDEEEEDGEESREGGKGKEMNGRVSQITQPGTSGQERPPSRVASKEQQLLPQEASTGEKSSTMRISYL

SS1 = SS1 (Rattus norvegicus, UniProt P30680); test: SS-1 binding (Bind SS1 D.H.)
SS1, sequence (P30680 whole entry): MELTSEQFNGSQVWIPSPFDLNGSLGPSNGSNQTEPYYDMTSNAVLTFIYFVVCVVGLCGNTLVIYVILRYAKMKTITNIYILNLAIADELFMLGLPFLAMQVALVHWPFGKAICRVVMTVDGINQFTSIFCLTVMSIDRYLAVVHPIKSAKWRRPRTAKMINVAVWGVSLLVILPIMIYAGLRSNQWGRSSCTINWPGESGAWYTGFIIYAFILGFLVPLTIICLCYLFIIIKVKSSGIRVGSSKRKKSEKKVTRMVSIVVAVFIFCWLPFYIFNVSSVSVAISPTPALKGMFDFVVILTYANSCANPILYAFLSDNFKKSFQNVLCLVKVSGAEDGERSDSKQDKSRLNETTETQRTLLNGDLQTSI

SSTR1 = target: T5, SSTR1 (Homo sapiens, UniProt P30872); test: Binding SSTR1; conditions: > = extrapolated value; read-out: Bind SSTR1
T5 construct: host or cells: SRIF receptor expressing cell cultures (general statement only)
T5 sequence (P30872 whole entry, species assumed): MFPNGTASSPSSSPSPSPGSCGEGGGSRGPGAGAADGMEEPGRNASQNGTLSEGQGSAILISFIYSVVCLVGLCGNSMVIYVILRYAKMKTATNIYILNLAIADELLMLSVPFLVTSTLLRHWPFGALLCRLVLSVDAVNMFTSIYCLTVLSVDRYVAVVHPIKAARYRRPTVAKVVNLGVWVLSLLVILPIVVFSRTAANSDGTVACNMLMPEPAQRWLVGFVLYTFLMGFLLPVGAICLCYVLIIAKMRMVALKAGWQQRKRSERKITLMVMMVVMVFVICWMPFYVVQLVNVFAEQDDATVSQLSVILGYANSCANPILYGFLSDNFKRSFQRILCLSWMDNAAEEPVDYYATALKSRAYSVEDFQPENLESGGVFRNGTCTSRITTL

[5] = test system: GHRH stimulated GH secretion; test: GH secretion in vivo, rat, intravenous infusion with repeated GHRH stimulation; conditions: for GH, Ur Inf15′ +GHRH / GH, UR Inf30′ +GHRH / GH, UR Inf60′ +GHRH: Tables 8/9, urethane; for GH, Ur Inf15′ +GHRH / INFUS. + GHRH ID50 15′: 15′ of infusion; for GH, UR Inf30′ +GHRH / INFUS. + GHRH ID50 30′: 30′ of infusion; for GH, UR Inf60′ +GHRH / INFUS. + GHRH ID50 60′: 60′ of infusion; for GH vivo Inf + GHRH ID50 (mean of time points): urethane, i.v. infusion, GHRH stimulated; for INFUS. + GHRH ID50 MEAN: Table 4, mean of infusion time points; for INFUS. + GHRH ID50 15′ / INFUS. + GHRH ID50 30′ / INFUS. + GHRH ID50 60′: Table 4, urethan
Protocol: as §1, §3, §4, §5, §6, §7

prolactin secretion = test: Unanesthetized estradiol primed male rats, oral by gavage: prolactin; type: in vivo, rat; conditions: estradiol implant male rats, oral by gavage, 1 hour; ø = no effect at this dose
Source text: (§8) Table 5 summarizes the results obtained in the estradiol primed male rats that received the compounds orally by gavage. These rats have stabilized elevated GH plasma levels as well as increased prolactin levels. In contrast to normal untreated rats, who's prolactin secretion is not sensitive to the inhibitory effect of somatostain, in these rats the prolactin secretion is inhibited to a similar degree as the GH secretion. Therefore, the inhibitory effect can be measured on 2 different parameters, GH and prolactin. The mean enteral absorption and activity of the respective compounds are shown.

GH secretion [6] = test: Unanesthetized estradiol primed male rats, oral by gavage: GH; type: in vivo, rat; conditions: estradiol implant male rats, oral by gavage, 1 hour
Protocol: The inhibitory effect of the compounds on GH release may also be examined after oral application to male rats with oestradiol implants. This test is carried out as follows.
A loop (length 50 mmØ3 mm) of silastic with 50 mg of oestradiol is implanted under the dorsal skin of anaesthetized male OFA rats that have a weight of ca. 300 g. At various times (1 to 6 months later), these animals, in a fasted state, are used repeatedly for tests. The test substances are active in this test at doses from 0.1 to 5 mg/kg, when GH level in the blood serum is determined by radio-immunoassay 1 and 2 hours after oral administration.
as §8

T1 sequence (P31391 whole entry, species assumed): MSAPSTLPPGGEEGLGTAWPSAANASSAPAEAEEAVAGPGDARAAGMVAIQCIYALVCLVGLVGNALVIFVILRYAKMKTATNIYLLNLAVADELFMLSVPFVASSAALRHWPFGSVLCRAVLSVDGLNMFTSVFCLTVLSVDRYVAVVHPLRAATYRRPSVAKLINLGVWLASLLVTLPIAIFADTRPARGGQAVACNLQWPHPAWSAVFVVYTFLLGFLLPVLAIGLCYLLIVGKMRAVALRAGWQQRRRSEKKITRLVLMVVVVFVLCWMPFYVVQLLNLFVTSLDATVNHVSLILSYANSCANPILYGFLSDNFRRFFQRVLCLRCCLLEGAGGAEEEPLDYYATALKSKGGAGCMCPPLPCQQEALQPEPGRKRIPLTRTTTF

Structure (SMILES): Cc1cccc2c(CC3C(=O)N(CCCCCN)C(=O)N3S(=O)(=O)c3ccc(Oc4ccc(O)cc4)c(C#N)c3)c[nH]c12 (stereo not shown) [Compound 14]
- pIC50 (SSTR4): < 6.00
- pIC50 [1]: 8.24
- pIC50 [2]: 7.96
- pIC50 (SSTR5): 6.35
- GH vivo i.d. 1 h ID50 (GH secretion [3]): >30 mg/kg
- EC50 for inhibition of GH release, subcutaneous (GH secretion [4]; applied subcutaneous): ~1 mg/kg
- GH vivo s.c. 1 h ID50 (GH secretion [4]): 1.16 mg/kg
- pIC50 (SSTR3): 6.52
- Bind SS1 D.H. (SS1): 2.50 nM
- SS-1 binding pKd (SS1): 8.56
- pIC50 (SSTR1): < 6.00
- GH, Ur Inf15′ +GHRH [5]: ˜44 μg/kg/h
- GH, UR Inf30′ +GHRH [5]: 11.000 µg/kg/h
- GH, UR Inf60′ +GHRH [5]: 14.000 µg/kg/h
- GH vivo Inf + GHRH ID50 (mean of time points) [5]: 19.000 µg/kg/h

Structure (SMILES): N#Cc1cc(S(=O)(=O)N2C(=O)N(CCCCCN)C(=O)C2Cc2c[nH]c3ccccc23)ccc1Oc1ccc(N)cc1 (stereo not shown) [Compound 42]
- pIC50 (SSTR4): 5.28
- pIC50 [1]: 7.36
- pIC50 [2]: 6.59
- pIC50 (SSTR5): 5.85
- GH vivo i.d. 1 h ID50 (GH secretion [3]): Ø10000 μg/kg
- pIC50 (SSTR3): 5.55
- pIC50 (SSTR1): 4.30
- GH, Ur Inf15′ +GHRH [5]: 856.000 µg/kg/h
- GH, UR Inf30′ +GHRH [5]: 434.000 µg/kg/h
- GH, UR Inf60′ +GHRH [5]: 425.000 µg/kg/h
- GH vivo Inf + GHRH ID50 (mean of time points) [5]: 540.000 µg/kg/h

Structure (SMILES): Cc1cccc2c(CC3C(=O)N(CCCCCN)C(=O)N3S(=O)(=O)c3ccc(Oc4ccc(O)c(Cl)c4)c(C#N)c3)c[nH]c12 (stereo not shown) [Compound 44]
- pIC50 (SSTR4): < 6.00
- pIC50 [1]: 8.57
- pIC50 [2]: 8.77
- pIC50 (SSTR5): 6.77
- GH vivo i.d. 1 h ID50 (GH secretion [3]): 9.721 mg/kg
- enteral ID50 (GH secretion) (GH secretion [3]): 9.7 mg/kg
- GH vivo s.c. 1 h ID50 (GH secretion [4]): 0.258 mg/kg
- GH vivo s.c. 1 h ID50 (GH secretion [4]; listed as 44 ch): 0.258 mg/kg
- pIC50 (SSTR3): < 6.00
- PROLACT 1 H ID50 (prolactin secretion): ø10000 μg/kg
- Bind SS1 D.H. (SS1): 1.00 nM
- GH 1 H ID50 (GH secretion [6]): 16 mg/kg
- MEAN ID50 (GH and prolactin) (GH secretion [6]): 16 mg/kg
- pIC50 (SSTR1): < 6.00
- INFUS. + GHRH ID50 MEAN [5]: 0.0432 mg/kg
- INFUS. + GHRH ID50 15′ [5]: 0.0724 mg/kg
- INFUS. + GHRH ID50 30′ [5]: 0.041 mg/kg
- INFUS. + GHRH ID50 60′ [5]: 0.0271 mg/kg
- GH, Ur Inf15′ +GHRH [5]: 50 µg/kg/h
- GH, UR Inf30′ +GHRH [5]: 30 µg/kg/h
- GH, UR Inf60′ +GHRH [5]: 21 µg/kg/h
- GH vivo Inf + GHRH ID50 (mean of time points) ([5]; listed as 44 ch): 43.00 µg/kg/h and 32 µg/kg/h

Structure (SMILES): Cc1cccc2c(CC3C(=O)N(CCCCCN)C(=O)N3S(=O)(=O)c3ccc(Oc4ccc(O)cc4)c(CN)c3)c[nH]c12 (stereo not shown) [Compound 45]
- pIC50 (SSTR4): < 6.00
- pIC50 [1]: 8.52
- pIC50 [2]: 8.29
- pIC50 (SSTR5): 7.01
- GH vivo i.d. 1 h ID50 (GH secretion [3]): 11.4 mg/kg
- enteral ID50 (GH secretion) (GH secretion [3]): 11.4 mg/kg
- enteral bioavailability (from ID50 ratio) (GH secretion [3]; intraduodenal 1 hour vs parenteral ID50): =0/42%
- GH vivo s.c. 1 h ID50 (GH secretion [4]): 0.048 mg/kg
- GH vivo s.c. 1 h ID50 (GH secretion [4]; listed as 45 ch): 0.048 mg/kg
- GH vivo s.c. 1 h ID50 (GH secretion [4]; listed as 45 dch): 0.048 mg/kg
- pIC50 (SSTR3): 6.66
- PROLACT 1 H ID50 (prolactin secretion): 16 mg/kg
- Bind SS1 D.H. (SS1): 1.00 nM
- GH 1 H ID50 (GH secretion [6]): 8 mg/kg
- MEAN ID50 (GH and prolactin) (GH secretion [6]): 11.313 mg/kg
- pIC50 (SSTR1): 5.85
- INFUS. + GHRH ID50 MEAN [5]: 0.03105 mg/kg
- INFUS. + GHRH ID50 15′ [5]: 0.034 mg/kg
- INFUS. + GHRH ID50 30′ [5]: 0.03 mg/kg
- INFUS. + GHRH ID50 60′ [5]: 0.031 mg/kg
- GH, Ur Inf15′ +GHRH [5]: 34.000 µg/kg/h
- GH, UR Inf30′ +GHRH [5]: 30.000 µg/kg/h
- GH, UR Inf60′ +GHRH [5]: 30.000 µg/kg/h
- GH vivo Inf + GHRH ID50 (mean of time points) ([5]; listed as 45 ch): 30.000 µg/kg/h
- GH vivo Inf + GHRH ID50 (mean of time points) ([5]; listed as 45 dch): 31.05 µg/kg/h and 30.000 µg/kg/h
